According to patent publication US11066369B2, “N-(pyridin-2-yl)pyridine-sulfonamide derivatives and their use in the treatment of disease” (Novartis AG, priority 2016, dated 2021):
Counter-ions that a name gives are not always drawn.

Columns and labels:
[1] = molecular target: T1, horseradish peroxidase (HRP) tagged delF508-CFTR (Homo sapiens, UniProt P13569, DEL508-508); experiment: Measurement of delF508-CFTR-HRP surface expression in CFBE41o- cells; format: cell-based; conditions: delF508-CFTR-HRP surface expression, CFBE41o- cells; for Emax: read-out: DelF508-CFTR-HRP Amax %; for EC50: read-out: DelF508-CFTR-HRP EC50;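 for DelF508-CFTR-HRP Amax %: percent efficacy relative to reference corrector lumacaftor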
T1 construct: expressed in transfected cells
T1 sequence (P13569 with tags, fused parts or gaps DEL508-508): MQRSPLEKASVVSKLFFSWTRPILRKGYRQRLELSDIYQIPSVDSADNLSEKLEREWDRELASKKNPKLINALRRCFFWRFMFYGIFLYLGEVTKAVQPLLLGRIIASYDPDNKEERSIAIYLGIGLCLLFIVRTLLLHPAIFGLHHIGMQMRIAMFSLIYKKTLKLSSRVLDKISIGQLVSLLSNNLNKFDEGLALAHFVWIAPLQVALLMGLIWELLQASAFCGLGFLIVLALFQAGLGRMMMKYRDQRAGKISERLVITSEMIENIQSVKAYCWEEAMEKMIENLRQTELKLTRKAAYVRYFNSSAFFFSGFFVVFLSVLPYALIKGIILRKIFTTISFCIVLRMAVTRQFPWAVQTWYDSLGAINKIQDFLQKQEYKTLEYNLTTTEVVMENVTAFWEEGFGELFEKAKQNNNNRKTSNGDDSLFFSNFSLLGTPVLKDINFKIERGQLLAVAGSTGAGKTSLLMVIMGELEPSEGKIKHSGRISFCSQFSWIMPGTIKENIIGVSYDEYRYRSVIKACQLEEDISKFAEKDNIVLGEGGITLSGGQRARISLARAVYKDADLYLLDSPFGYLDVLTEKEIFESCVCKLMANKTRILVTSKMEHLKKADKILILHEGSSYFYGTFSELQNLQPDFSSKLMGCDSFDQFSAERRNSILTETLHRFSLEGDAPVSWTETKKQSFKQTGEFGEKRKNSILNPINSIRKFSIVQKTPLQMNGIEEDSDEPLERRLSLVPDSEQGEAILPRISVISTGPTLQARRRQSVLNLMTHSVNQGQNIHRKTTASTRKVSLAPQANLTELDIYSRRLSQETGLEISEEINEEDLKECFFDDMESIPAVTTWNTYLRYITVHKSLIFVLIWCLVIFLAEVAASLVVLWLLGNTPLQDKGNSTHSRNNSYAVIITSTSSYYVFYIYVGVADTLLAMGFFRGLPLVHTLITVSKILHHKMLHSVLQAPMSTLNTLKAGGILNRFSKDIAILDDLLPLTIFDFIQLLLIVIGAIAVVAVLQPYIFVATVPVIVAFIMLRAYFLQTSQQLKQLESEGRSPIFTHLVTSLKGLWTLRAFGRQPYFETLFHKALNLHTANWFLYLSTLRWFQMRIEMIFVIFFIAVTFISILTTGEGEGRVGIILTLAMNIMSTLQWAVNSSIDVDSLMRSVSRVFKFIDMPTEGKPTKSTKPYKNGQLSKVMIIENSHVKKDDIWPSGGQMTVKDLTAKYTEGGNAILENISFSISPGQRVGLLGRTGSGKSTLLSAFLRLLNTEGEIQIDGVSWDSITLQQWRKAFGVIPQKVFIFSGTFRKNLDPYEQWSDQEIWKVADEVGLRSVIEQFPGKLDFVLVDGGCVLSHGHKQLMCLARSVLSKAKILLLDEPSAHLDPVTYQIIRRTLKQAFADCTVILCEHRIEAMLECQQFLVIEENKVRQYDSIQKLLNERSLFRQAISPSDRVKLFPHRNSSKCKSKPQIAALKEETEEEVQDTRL
Method in brief: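 Surface-trafficked delF508-CFTR detected via extracellular HRP tag, read as luminescence from a membrane-impermeant substrate in CFBE41o- cells. Cells pre-induced 48h with 500 ng/mL doxycycline, then exposed 24h at 37° C to a 10-point, 3-fold dilution series from 10 μM (DMSO ≤0.5%). Triplicate dose-responses fitted logistically for EC50 after per-plate normalization; fold change versus reference compound.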

[2] = molecular target: T2, delF508-CFTR (Homo sapiens, UniProt P13569, DEL508-508); experiment: Measurement of delF508-CFTR functional activity in primary human bronchial epithelial cells (HBECs) using Multi-Transepithelial Clamp Circuit (MTECC-24) assay; format: cell-based; conditions: primary CF HBECs; for MTECC24 CFHBEC- Amax %: test compound added 24h before assay plus potentiator, relative to reference combination (2 μM corrector + 0.5 μM potentiator); for EC50: test compound added 24h before assay, in the presence of potentiator, mean of at least two replicates, read-out: MTECC24 CFHBEC- EC50
T2 construct: functional activity of the CFTR channel (Chloride ion transport) in patient derived primary human bronchial epithelial cells; host or cells: patient-derived primary human bronchial epithelial cells (delF508-CFTR)
T2 sequence (P13569 with tags, fused parts or gaps DEL508-508): as above
From the text: [formula] Measurement of delF508-CFTR Functional Activity in Primary Human Bronchial Epithelial Cells (HBECs) Using Multi-Transepithelial Clamp Circuit (MTECC-24) Assay
This assay measures the functional activity of the CFTR channel (Chloride ion transport) in patient derived primary human bronchial epithelial cells with forskolin activation and in the presence of the CFTR corrector/potentiator combo.
Primary human delF508-CFTR bronchial epithelial cells were purchased from Asterand and cultured according to previously established methods (Fulcher et al. (2005) Methods Mol Med 107: 183-206). Briefly, vendor supplied cells were rapidly defrosted and added to a T175 flask in 50 mL growth media (Lonza BEBM media with Lonza BEGM singlequots). Media was replaced after 24h and then cells were fed every other day until cells were 80-90% confluent, at which point cells were cryopreserved. These P1 vials were thawed at 37° C. as needed and added to T175 flasks in 50 mL growth media at 5×10^5 cells/flask. Media was replaced after 24h, and then cells were fed every other day until 80-90% confluent. Cells were lifted with 5 mL accutase at 37° C. for 5 minutes, centrifuged at 1000 rpms for 5 min (300 g), and resuspended in differentiation media (50% BEBM in DMEM, BEGM singlequots, all trans retinoic acid (5×10^−8M)). Cells were then counted and cell suspension was added to collagen coated inserts at 3×10^4 cells/insert in 0.15 mL with 0.5 mL differentiation media on the basolateral side.
Apical and basolateral media were replaced on alternate days, and following day 7 (or when confluent plus 2 days), air liquid interface was established for approximately two weeks by removal of apical media. One day prior to use on the MTECC24 system (EP-Devices, EP Design, Belgium), 0.15 mL of warmed (37° C.) PBS was added to the apical surface of the cultures and returned to humidifier (37° C., 5% CO2 incubator) for 30 min before aspirating the apical surface to remove any mucus.
Compound treatments were then prepared. Compound dilutions, typically a 10 point concentration response with 1 in 3 dilution steps, were made in 100% DMSO before dilution 1 in 1000 into differentiation medium with a final DMSO concentration of 0.1% or 0.2% for the study. Compound containing medium was then transferred into the wells of a 24 well plate at 0.5 mL per well and warmed for 30 min in a 37° C. incubator prior to transferring washed inserts into the compound containing plates. Cells were incubated in compound containing medium (basolateral only) for 24h prior to measurement in the MTECC24 system.
Following 24 hr treatment, compound dilutions were prepared again, diluted 1 in 1000 into 37° C. assay medium (F-12 Coon's modified, 20 mM HEPES pH7.4 with TRIS Base, No FCS or bicarbonate). Cells which were treated for 24h with test compound were then transferred into plates containing 0.75 mL compound treatment in assay medium (basolateral) and 0.25 mL of the compound containing assay medium was added to the apical surface. The plates were then transferred to the heated plate compartments of the MTECC24 system for 45 min prior to measurements (this can also be done in a non-CO2 37° C. humidified incubator). Basolateral temperature should not exceed 36.5° C. and apical temperature should be approximately 35.5° C.
Modulators were added sequentially as follows while the MTECC24 instrument recorded the equivalent short circuit current (Ieq):
Prior to dilution into F-12 medium the stocks are as follows:
Amiloride stock is 10 mM in H2O
Forskolin Stock is 10 mM in 100% DMSO
(S)-3-amino-6-methoxy-N-(3,3,3-trifluoro-2-hydroxy-2-methylpropyl)-5-(trifluoromethyl)picolinamide is 0.5 mM stock in 100% DMSO
INH-172 (4-[[4-Oxo-2-thioxo-3-[3-trifluoromethyl)phenyl]-5-thiazolidinylidene]methyl]benzoic acid) stock is 30 mM in 100% DMSO
The data was normalized using the median signal from wells treated with 0.1% DMSO as a baseline. […]

Structure (SMILES) | Emax [1] [%] | EC50 [1] [nM] | MTECC24 CFHBEC- Amax % [2] [%] | EC50 [2] [nM]
Cc1cccc(C)c1-c1nc(NS(=O)(=O)c2cccc(N[C@H]3C[C@H](O)C3)n2)ccc1Cl [Example 287, N-[5-chloro-6-(2,6-dimethylphenyl)pyridin-2-yl]-6-{[(1r,3r)-3-hydroxycyclobutyl]amino}pyridine-2-sulfonamide] | 384 | 1410 | 74.8 | 7.1
Cc1ccc(F)cc1-c1nc(NS(=O)(=O)c2cccc(N3CCN(C4CC4)CC3)n2)ccc1C(F)(F)F [Example 145, 6-(4-cyclopropylpiperazin-1-yl)-N-(6-(5-fluoro-2-methylphenyl)-5-(trifluoromethyl)pyridin-2-yl)pyridine-2-sulfonamide] |  | 1270 | 90.9 | 5
Cc1ccc(F)cc1-c1nc(NS(=O)(=O)c2cccc(N[C@@H]3COCC[C@H]3O)n2)ccc1Cl [Example 278, N-[5-chloro-6-(5-fluoro-2-methylphenyl)pyridin-2-yl]-6-{[(3R,4R)-4-hydroxyoxan-3-yl]amino}pyridine-2-sulfonamide] |  | 1100 | 73.4 | 5.4
Nc1cccc(S(=O)(=O)Nc2ccc(Cl)c(-c3cc(C(F)(F)F)ccc3Cl)n2)n1 [Example 43, 6-amino-N-(5-chloro-6-(2-chloro-5-(trifluoromethyl)phenyl)pyridin-2-yl)pyridine-2-sulfonamide] | 361 | 2120 | 54.2 | 63.3
Cc1cccc(C)c1-c1nc(NS(=O)(=O)c2cccc(N3CC(C)(O)C3)n2)ccc1Cl [Example 210, N-(5-chloro-6-(2,6-dimethylphenyl)pyridin-2-yl)-6-(3-hydroxy-3-methylazetidin-1-yl)pyridine-2-sulfonamide] | 507 | 716 | 68.7 | 2.2
O=S(=O)(Nc1ccc(C(F)(F)F)c(-c2ccccc2Cl)n1)c1cccc(N2CC(O)C2)n1 [Example 222, N-(6-(2-chlorophenyl)-5-(trifluoromethyl)pyridin-2-yl)-6-(3-hydroxyazetidin-1-yl)pyridine-2-sulfonamide] | 427 | 1710 | 61.1 | 10.6
Cc1ccccc1-c1nc(NS(=O)(=O)c2cccc(O[C@@H]3COC[C@@H]3O)n2)ccc1C(F)(F)F (single isomer, unassigned) [Example 296] | 255 | 3220 | 54.3 | 30
COc1ccc(Cl)c(-c2nc(NS(=O)(=O)c3cccc(N4CCC(C)(C(=O)O)CC4)n3)ccc2C(F)(F)F)c1 [Example 241, 1-(6-(N-(6-(2-chloro-5-methoxyphenyl)-5-(trifluoromethyl)pyridin-2-yl)sulfamoyl)pyridin-2-yl)-4-methylpiperidine-4-carboxylic Acid] | 510 | 2890 | 48.9 | 12.4
Cc1ccc(F)cc1-c1nc(NS(=O)(=O)c2ccc(N)nc2)ccc1Cl [Example 44, 6-amino-N-(5-chloro-6-(5-fluoro-2-methylphenyl)pyridin-2-yl)pyridine-3-sulfonamide] | 346 | 1770 | 61.6 | 46

Results, then the molecule that gave them:

Emax [1] [%] | EC50 [1] [nM] | MTECC24 CFHBEC- Amax % [2] [%] | EC50 [2] [nM] | Structure (SMILES)
179 | 3270 | 61.7 | 220 | Cc1ccc(C#N)cc1-c1nc(NS(=O)(=O)c2cccc(N3CCNCC3)n2)ccc1C(F)(F)F [Example 311, N-(6-(5-cyano-2-methylphenyl)-5-(trifluoromethyl)pyridin-2-yl)-6-(piperazin-1-yl)pyridine-2-sulfonamide]
172 | 4050 | 55.0 | 495 | Cc1ccccc1-c1nc(NS(=O)(=O)c2cccc(NC3CCNCC3)n2)ccc1C(F)(F)F [Example 112, 6-(piperidin-4-ylamino)-N-(6-(o-tolyl)-5-(trifluoromethyl)pyridin-2-yl)pyridine-2-sulfonamide Hydrochloride]
 | 1380 | 70.9 | 6.4 | Cc1ccc(F)cc1-c1nc(NS(=O)(=O)c2cccc(N[C@@H]3CCOC[C@H]3O)n2)ccc1Cl [Example 273, N-[5-chloro-6-(5-fluoro-2-methylphenyl)pyridin-2-yl]-6-{[(3S,4R)-3-hydroxyoxan-4-yl]amino}pyridine-2-sulfonamide]
714 | 699 | 82.2 | 0.808 | CCCC1(C(=O)O)CCCN(c2cccc(S(=O)(=O)Nc3ccc(C(F)(F)F)c(-c4ccccc4CC)n3)n2)C1 (stereo not shown) [Example 352, 1-(6-{[6-(2-ethylphenyl)-5-(trifluoromethyl)pyridin-2-yl]sulfamoyl}pyridin-2-yl)-3-propylpiperidine-3-carboxylic Acid]
804 | 3440 | 95.3 | 13 | Cc1ccc(F)cc1-c1nc(NS(=O)(=O)c2cccc(N3CCN4C[C@@H](F)CC4[C@@H]3C)n2)ccc1Cl (stereo partly drawn) [Example 135, N-(5-chloro-6-(5-fluoro-2-methylphenyl)pyridin-2-yl)-6-((1S,7S)-7-fluoro-1-methylhexahydropyrrolo[1,2-a]pyrazin-2(1H)-yl)pyridine-2-sulfonamide]
 | 744 | 62.4 | 11.8 | Cc1ccccc1-c1nc(NS(=O)(=O)c2cccc(N3CCN(C(=O)OC(C)(C)C)[C@H](C)C3)n2)ccc1C(F)(F)F [Example 166, tert-butyl (R)-2-methyl-4-(6-(N-(6-(o-tolyl)-5-(trifluoromethyl)pyridin-2-yl)sulfamoyl)pyridin-2-yl)piperazine-1-carboxylate]
218 | 3150 | 85.2 | 238 | Cc1ccccc1-c1nc(NS(=O)(=O)c2cccc(N[C@@H]3CCNC3)n2)ccc1C(F)(F)F [Example 123, (R)-6-(pyrrolidin-3-ylamino)-N-(6-(o-tolyl)-5-(trifluoromethyl)pyridin-2-yl)pyridine-2-sulfonamide Hydrochloride]
385 | 3920 | 81.2 | 178 | Cc1ccc(F)cc1-c1nc(NS(=O)(=O)c2cccc(N3CCNCC3)n2)ccc1Cl [Example 193, N-(5-chloro-6-(5-fluoro-2-methylphenyl)pyridin-2-yl)-6-(piperazin-1-yl)pyridine-2-sulfonamide hydrochloride]
